Assay results published in patent US20210330611A1, “THERAPY FOR NEUROLOGICAL DISEASES/DISORDERS” (priority 2020, published 2021).
Where “and” joins values, the source holds several entries; their conditions need not be identical. Equal values may be shown once. Where a name gives a salt, the structure may show the parent alone. Read-outs that look alike come from different tables or passages of the source. *1 amine or outer side, *2 acyl side, *3 side chain or, on linkers, in order; H or OH if unused. Where a SMILES comes first, the peptide text is derived from it. Bridges are numbered along the chain shown (N, C = ends). Roman numbers before positions name the chains, in order. [ ]: non-standard residue; d: D form. Actinocin(9to1) = Cc1c2oc3c(C)ccc(C(=O)[*:1])c3nc-2c(C(=O)[*:2])c(N)c1=O; NMeV = CN[C@H](C(=O)O)C(C)C; Sar = CNCC(=O)O

What was measured:
[1] = test system: LPS-induced microglia activation; assay: Image-based assay of LPS-induced microglia activation (HTS and dose response); format: cell-based, rat
[2] = test system: fibrin- and LPS-induced microglia activation; assay: cells; format: cell-based, rat; settings: for inhibition at 10 µM: Rattus norvegicus, Microglia
primary rat microglia = assay: Cell toxicity (dead cells, size <150 μm2) in coated fibrin (cFib) assay; settings: primary microglia HTS;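 note: share of dead cells sized under 150 µm2 at 10 µM in fibrin-stimulated microglia HTS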
[3] = test system: fibrin-induced microglia activation; assay: Image-based assay of fibrin-induced microglia activation (HTS and dose response); format: cell-based, rat; settings: for inhibition at 10 µM: read-out: Fibrin % inhibition
[4] = classification by fibrin and LPS inhibition, HTS at 10 μM
[5] = fibrin assay, dead cells (size <150 μm2), compounds at 10 μM
[6] = quadrant by fibrin and LPS inhibition, HTS at 10 μM
[7] = fibrin assay, dead cells (size <150 μm2)
[8] = Rattus norvegicus, Microglia, 48 h; read-out: LPS % inhibition
[9] = classification by fibrin and LPS inhibition in HTS
[10] = Rattus norvegicus, Microglia, primary microglia HTS, fibrin stimulation, increased cell size (>800 μm^2) as marker of activation
[11] = Rattus norvegicus, Microglia, 48 h, primary microglia HTS, LPS stimulation; increased cell size (>800 μm^2) as marker of activation; read-out: LPS % inhibition
[12] = quadrant by fibrin and LPS inhibition in HTS of 1907 compounds
[13] = Rattus norvegicus, Microglia, primary microglia HTS, fibrin stimulation, cell size >800 μm2 as marker of activation
[14] = Rattus norvegicus, Microglia, read-out: LPS % inhibition
[15] = Rattus norvegicus, Microglia, Table 7, read-out: fib_IC50
[16] = Rattus norvegicus, Microglia, Table 7; read-out: LPS_IC50
[17] = Table 7, fib = fibrin, LPS, tox = toxicity
[18] = Rattus norvegicus, Microglia, 48 h, read-out: LPS % inhibition
[19] = Rattus norvegicus, Microglia, primary microglia HTS, fibrin stimulation, activation = cell size >800 μm2
[20] = Rattus norvegicus, Microglia, 48 h, primary microglia HTS, LPS stimulation, activation = cell size >800 μm2; read-out: LPS % inhibition

COc1ccc2[nH]c([S+]([O-])Cc3ncc(C)c(OC)c3C)nc2c1 (stereo not drawn) [Esomeprazole; Omeprazole]
LPS % inhibition ([1]; primary microglia HTS, LPS stimulation, compounds at 10 μM; 10 µM): 24% and 13% | Quadrant (FIG. 5b) [2, 4]: Q4 | Fibrin % cell toxicity (primary rat microglia; [5]): 0% and 1%

C[C@@H]1[C@H](O)[C@@H](C)/C=C/C=C/C=C/C=C/C=C/C=C/C=C/[C@H](O[C@@H]2O[C@H](C)[C@@H](O)[C@H](N)[C@@H]2O)C[C@@H]2O[C@](O)(C[C@@H](O)C[C@@H](O)[C@H](O)CC[C@@H](O)C[C@@H](O)CC(=O)O[C@H]1C)C[C@H](O)[C@H]2C(=O)O [Amphotericin B]
Quadrant (FIG. 5b) [2, 6]: Q4 | Fibrin % cell toxicity (primary rat microglia; [7]): 1%

C#C[C@]1(OC(C)=O)CC[C@H]2[C@@H]3CCC4=C[C@@H](OC(C)=O)CC[C@@H]4[C@H]3CC[C@@]21C [Ethynodiol Diacetate]
Quadrant (FIG. 5b) [2, 4]: Q4 | Fibrin % cell toxicity (primary rat microglia; [5]): 1%

C[C@H]1O[C@@H](O[C@H]2[C@@H](O)C[C@H](O[C@H]3[C@@H](O)C[C@H](O[C@H]4CC[C@@]5(C)[C@H](CC[C@@H]6[C@@H]5CC[C@]5(C)[C@@H](C7=CC(=O)OC7)CC[C@]65O)C4)O[C@@H]3C)O[C@@H]2C)C[C@H](O)[C@@H]1O [Digitoxin]
Quadrant (FIG. 5b) [2, 4]: Q4 | Fibrin % cell toxicity (primary rat microglia; [5]): 1%

C[C@@H]1CN(c2c(F)c(N)c3c(=O)c(C(=O)O)cn(C4CC4)c3c2F)C[C@H](C)N1 [Sparfloxacin]
inhibition at 10 µM [1, 8]: 11% | Quadrant (FIG. 5b) [2, 9]: Q4 | Fibrin % cell toxicity (primary rat microglia; fibrin stimulation, cell size <150 μm2 as marker of toxicity): 0% and 1%

O=C1CN2Cc3c(ccc(Cl)c3Cl)N=C2N1 [Anagrelide]
Quadrant (FIG. 5b) [2, 6]: Q4 | Fibrin % cell toxicity (primary rat microglia; [7]): 1%

CC(C)n1c(/C=C/C(O)CC(O)CC(=O)O)c(-c2ccc(F)cc2)c2ccccc21 (stereo not drawn) [Fluvastatin]
inhibition at 10 µM [3, 10]: 110% | inhibition at 10 µM [1, 11]: 101% | Quadrant (FIG. 5b) [2, 12]: Q2

CN[C@@H](C)[C@@H](O)c1ccccc1 [Pseudoephedrine]
inhibition at 10 µM [3, 13]: -13% | inhibition at 10 µM [1, 8]: 5% | Quadrant (FIG. 5b) [2, 9]: Q4

CCCCc1oc2ccccc2c1C(=O)c1cc(I)c(OCCN(CC)CC)c(I)c1 [Amiodarone]
inhibition at 10 µM ([3]; Rattus norvegicus, Microglia): -4% | inhibition at 10 µM [1, 14]: 13% | Quadrant (FIG. 5b) [2]: Q4

Nc1nc2nc[nH]c2c(=S)[nH]1 [Tioguanine]
inhibition at 10 µM ([3]; Rattus norvegicus, Microglia): 12% | inhibition at 10 µM [1, 14]: 18% | Quadrant (FIG. 5b) [2]: Q4

CO[C@@H]1C[C@@H](C[C@H]2CC[C@H](C)[C@H]([C@@H](C)C(=O)O)O2)O[C@]2(O[C@](C)([C@H]3CC[C@@](C)([C@@H]4O[C@@H]([C@H]5O[C@@](O)(CO)[C@H](C)C[C@@H]5C)C[C@@H]4C)O3)C[C@H]2C)[C@@H]1C [nigericin sodium]
IC50 [3, 15]: 0.206 µM | IC50 [1, 16]: 0.065 µM | Activity [2, 17]: fib/LPS

O=C(CCCN1CC=C(n2c(=O)[nH]c3ccccc32)CC1)c1ccc(F)cc1 [Droperidol]
inhibition at 10 µM ([3]; Rattus norvegicus, Microglia): -3% | inhibition at 10 µM [1, 14]: 20% | Quadrant (FIG. 5b) [2]: Q4

C[C@@H]1C[C@H]2[C@@H]3C[C@H](F)C4=CC(=O)C=C[C@]4(C)[C@@]3(F)[C@@H](O)C[C@]2(C)[C@@]1(O)C(=O)CO [Flumethasone, reference compound]
IC50 ([3]; Rattus norvegicus, Microglia, 48 h, read-out: Fibrin IC50): < 0.001 µM | inhibition at 10 µM ([3]; Rattus norvegicus, Microglia): 109% | IC50 ([3]; Rattus norvegicus, Microglia, read-out: Fibrin IC50 (uM)): < 0.001 µM | IC50 ([3]; Rattus norvegicus, Microglia, read-out: Fibrin IC50 (uM) (Suppl. Table 7)): < 0.001 µM | inhibition at 10 µM [1, 18]: 101% | IC50 ([1]; Rattus norvegicus, Microglia, 48 h, read-out: LPS IC50): < 0.001 µM | IC50 ([1]; Rattus norvegicus, Microglia, read-out: LPS IC50 (uM)): < 0.001 µM | IC50 ([1]; Rattus norvegicus, Microglia, read-out: LPS IC50 (uM) (Suppl. Table 7)): < 0.001 µM | Quadrant (FIG. 5b) [2]: Q2 | inhibition at 10 µM ([2]; read-out: Cherry-picked Hit (Suppl. Table 7)): > 50% | inhibition at 10 µM ([2]; read-out: Hit): > 50%

CC(C)[N+]1(C)[C@@H]2CC[C@H]1CC(OC(=O)C(CO)c1ccccc1)C2.[Br-] (stereo partly drawn) [Ipratropium Bromide]
Fibrin % inhibition [3]: 6% | LPS % inhibition [1]: 8% | Quadrant (FIG. 5b) [2]: Q4

CCCCC(C)(O)C/C=C/[C@H]1[C@H](O)CC(=O)[C@@H]1CCCCCCC(=O)OC (mixture of isomers) [Misoprostol]
inhibition at 10 µM [3, 10]: 13% | inhibition at 10 µM [1, 11]: 32% | Quadrant (FIG. 5b) [2, 12]: Q4

O.OC[C@H]1O[C@@H](O[C@H]2[C@H](O)[C@@H](O)C(O)O[C@@H]2CO)[C@H](O)[C@@H](O)[C@H]1O (stereo partly drawn) [Lactose Monohydrate]
inhibition at 10 µM [3, 19]: -22% | inhibition at 10 µM [1, 20]: 9% | Quadrant (FIG. 5b) [2, 12]: Q4

C#C[C@]1(O)CC[C@H]2[C@@H]3CCC4=CC(=O)CC[C@@H]4[C@H]3CC[C@@]21CC [Levonorgestrel]
inhibition at 10 µM [3, 19]: 16% | inhibition at 10 µM [1, 20]: -13% | Quadrant (FIG. 5b) [2, 12]: Q4

CC(=O)OCC(=O)[C@@]1(O)CC[C@H]2[C@@H]3C[C@H](C)C4=CC(=O)C=C[C@]4(C)[C@H]3[C@@H](O)C[C@@]21C [6alpha-methylprednisolone acetate]
fib specificity [3]: 1.0 | fib_HS [3]: −0.26 | LPS specificity [1]: 1.0 | LPS_HS [1]: −0.40 | Activity [2]: fib/LPS

C[C@]12CC[C@@H]3c4ccc(O)cc4CC[C@H]3[C@@H]1C[C@H](O)[C@@H]2O [Epiestriol]
inhibition at 10 µM ([3]; Rattus norvegicus, Microglia): -25% | inhibition at 10 µM [1, 14]: 6% | Quadrant (FIG. 5b) [2]: Q4

Nc1cc(N2CCCCC2)nc(N)[n+]1[O-] [Minoxidil]
inhibition at 10 µM [3, 10]: -5% | inhibition at 10 µM [1, 11]: 9% | Quadrant (FIG. 5b) [2, 12]: Q4

Cc1c2oc3c(C)ccc(C(=O)N[C@@H]4C(=O)N[C@H](C(C)C)C(=O)N5CCC[C@H]5C(=O)N(C)CC(=O)N(C)[C@@H](C(C)C)C(=O)O[C@@H]4C)c3nc-2c(C(=O)N[C@@H]2C(=O)N[C@H](C(C)C)C(=O)N3CCC[C@H]3C(=O)N(C)CC(=O)N(C)[C@@H](C(C)C)C(=O)O[C@@H]2C)c(N)c1=O [Dactinomycin] (I: T[dV]P[Sar][NMeV] / II: T[dV]P[Sar][NMeV]; ester I:1-I:C, II:1-II:C; linker I:N-II:N via Actinocin(9to1))
inhibition at 10 µM [3, 10]: 106% | inhibition at 10 µM [1, 11]: 106% | Quadrant (FIG. 5b) [2, 12]: Q2

Hydrocortisone sodium phosphate [reference compound]
fib specificity [3]: 1.3 | fib_HS [3]: −0.52 | IC50 ([3]; read-out: fib_IC50): 0.128 µM | LPS specificity [1]: 0.8 | LPS_HS [1]: −0.69 | IC50 ([1]; read-out: LPS_IC50): 0.161 µM | Activity [2]: fib/LPS | Quadrant (FIG. 5b) [2]: Q2

CCOP(=S)(OCC)Oc1ccc2c(C)c(Cl)c(=O)oc2c1 [Coumophos]
Fibrin % inhibition ([3]; primary microglia HTS, fibrin stimulation, compounds at 10 μM): −12% | LPS % inhibition ([1]; primary microglia HTS, LPS stimulation, compounds at 10 μM): 16% | Quadrant (FIG. 5b) [2, 4]: Q4

CNC(C)C(O)c1ccccc1 (stereo not drawn) [Racephedrine Hydrochloride]
inhibition at 10 µM [3, 13]: -26% | inhibition at 10 µM [1, 8]: 17% | Quadrant (FIG. 5b) [2, 9]: Q4

COc1cc([C@@H]2c3cc4c(cc3[C@H](O)[C@H]3COC(=O)[C@H]23)OCO4)cc(OC)c1OC [Podofilox, reference compound]
IC50 [3, 15]: 0.014 µM | IC50 [1, 16]: 0.002 µM | Quadrant (FIG. 5b) ([2]; Table 2, screen at 10 μM): Q2 | Activity [2, 17]: fib/LPS

COC(=O)C1=CCCN(C)C1 [Arecoline]
inhibition at 10 µM ([3]; Rattus norvegicus, Microglia, primary microglia HTS, fibrin stimulation, compounds at 10 μM): 17% | inhibition at 10 µM ([1]; Rattus norvegicus, Microglia, primary microglia HTS, LPS stimulation, compounds at 10 μM; read-out: LPS % inhibition): 14% | Quadrant (FIG. 5b) [2, 6]: Q4

CN1[C@@H]2C[C@@H](OC(=O)[C@H](CO)c3ccccc3)C[C@H]1[C@@H]1O[C@@H]12 [Scopolamine]
Fibrin % inhibition [3]: −26% | LPS % inhibition [1]: −6% | Quadrant (FIG. 5b) [2]: Q4

C#C[C@]1(O)CC[C@H]2[C@@H]3CCC4=C(CCC(=O)C4)[C@H]3CC[C@@]21C [Norethynodrel]
inhibition at 10 µM ([3]; Rattus norvegicus, Microglia): 1% | inhibition at 10 µM [1, 18]: 10% | Quadrant (FIG. 5b) [2]: Q4

CCC(=O)O[C@H]1CC[C@H]2[C@@H]3CCC4=CC(=O)CC[C@]4(C)[C@H]3CC[C@]12C [Testosterone Propionate]
inhibition at 10 µM ([3]; Rattus norvegicus, Microglia, primary microglia HTS, 10 μM, fibrin-stimulated, cell size >800 μm^2 as marker of activation): 21% | inhibition at 10 µM ([1]; Rattus norvegicus, Microglia, primary microglia HTS, 10 μM, LPS-stimulated, cell size >800 μm^2 as marker of activation; read-out: LPS % inhibition): 8% | Quadrant (FIG. 5b) ([2]; HTS of 1907 compounds, quadrant by fibrin and LPS inhibition): Q4

C[C@]12CCC(=O)C=C1CC[C@@H]1[C@@H]2C(=O)C[C@@]2(C)[C@H]1CC[C@]2(O)C(=O)CO [Cortisone]
Fibrin % inhibition ([3]; primary HTS, 10 μM, fibrin-stimulated primary microglia): 37% | LPS % inhibition ([1]; primary HTS, 10 μM, LPS-stimulated primary microglia): 44% | Quadrant (FIG. 5b) ([2]; primary HTS, 10 μM): Q4

FluoromethoIone [reference compound]
fib_HS ([3]; Hill slope of fibrin dose response, Table 7): −0.27 | fib specificity ([3]; Table 7): 1.0 | LPS_HS ([1]; Hill slope of LPS dose response; Table 7): 0.00 | LPS specificity ([1]; Table 7): 1.0 | Quadrant (FIG. 5b) ([2]; Table 2, screen at 10 μM): Q2 | Activity [2, 17]: fib/LPS
